# Data from ChEMBL document CHEMBL4616709, “P2Y14 Receptor Antagonists Reverse Chronic Neuropathic Pain in a Mouse Model” (ACS Med Chem Lett, 2020).
# pIC50: −log10 of the molar value.
# Assays:
# [1] = tested on: Mus musculus; assay: Antinociceptive activity in ICR mouse model of chronic constriction injury-induced neuropathic pain assessed as inhibition of mechanical allodynia at 3 umol/kg, ip administered 7 days post-surgery and measured after 5 hrs post-dose by Von Frey assay relative to control; format: functional
# [2] = tested on: Mus musculus; assay: Antinociceptive activity in ICR mouse model of chronic constriction injury-induced neuropathic pain assessed as inhibition of mechanical allodynia at 1 umol/kg, ip administered 7 days post-surgery and measured after 0.5 hrs post-dose by Von Frey assay relative to control; format: functional
# [3] = tested on: Mus musculus; assay: Antinociceptive activity in ICR mouse model of chronic constriction injury-induced neuropathic pain assessed as inhibition of mechanical allodynia at 10 umol/kg, ip administered 7 days post-surgery and measured after 1 hr post-dose by Von Frey assay relative to control; format: functional
# [4] = tested on: Mus musculus; assay: Antinociceptive activity in ICR mouse model of chronic constriction injury-induced neuropathic pain assessed as inhibition of mechanical allodynia at 10 umol/kg, ip administered 7 days post-surgery and measured after 5 hrs post-dose by Von Frey assay relative to control; format: functional
# [5] = tested on: Mus musculus; assay: Antinociceptive activity in ICR mouse model of chronic constriction injury-induced neuropathic pain assessed as inhibition of mechanical allodynia at 1 umol/kg, ip administered 7 days post-surgery and measured after 2 hrs post-dose by Von Frey assay relative to control; format: functional
# [6] = tested on: Mus musculus; assay: Antinociceptive activity in ICR mouse model of chronic constriction injury-induced neuropathic pain assessed as inhibition of mechanical allodynia at 1 umol/kg, ip administered 7 days post-surgery and measured after 1 hr post-dose by Von Frey assay relative to control; format: functional
# [7] = target: Cannabinoid receptor 2 (Rattus norvegicus, UniProt Q9QZN9); assay: Antagonist activity at rat brain CB2 receptor expressed in HEK-Flp-In cells in presence of [3H]CP55940 measured after overnight incubation by Bright-Glo luminescence assay; format: cell-based
# Cannabinoid receptor 2, sequence (Q9QZN9 whole entry, looked up): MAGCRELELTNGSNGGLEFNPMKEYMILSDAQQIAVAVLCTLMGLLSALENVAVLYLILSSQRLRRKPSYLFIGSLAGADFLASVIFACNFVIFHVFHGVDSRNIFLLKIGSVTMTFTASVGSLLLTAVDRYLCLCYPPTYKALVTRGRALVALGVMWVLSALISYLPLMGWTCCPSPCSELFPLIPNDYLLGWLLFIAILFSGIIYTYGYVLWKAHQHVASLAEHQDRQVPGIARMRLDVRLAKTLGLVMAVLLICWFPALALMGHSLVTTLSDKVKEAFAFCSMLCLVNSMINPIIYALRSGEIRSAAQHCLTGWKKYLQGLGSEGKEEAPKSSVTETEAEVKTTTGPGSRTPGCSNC
# [8] = tested on: Mus musculus; assay: Antinociceptive activity in ICR mouse model of chronic constriction injury-induced neuropathic pain assessed as inhibition of mechanical allodynia at 3 umol/kg, ip administered 7 days post-surgery and measured after 1 hr post-dose by Von Frey assay relative to control; format: functional
# [9] = tested on: Mus musculus; assay: Antinociceptive activity in ICR mouse model of chronic constriction injury-induced neuropathic pain assessed as inhibition of mechanical allodynia at 3 umol/kg, ip administered 7 days post-surgery and measured after 3 hrs post-dose by Von Frey assay relative to control; format: functional
# [10] = tested on: Mus musculus; assay: Effect on nociception on contralateral paw in ICR mouse model of chronic constriction injury-induced neuropathic pain assessed as paw withdrawal threshold at 10 umol/kg, ip administered 7 days post-surgery and measured after 30 mins to 3 hrs post-dose by Von Frey assay; format: organism-based; conditions: in vivo
# [11] = target: Cannabinoid receptor 1 (Rattus norvegicus, UniProt P20272); assay: Antagonist activity at rat brain CB1 receptor expressed in HEK-Flp-In cells in presence of [3H]CP55940 measured after overnight incubation by Bright-Glo luminescence assay; format: cell-based
# Cannabinoid receptor 1, sequence (P20272 whole entry): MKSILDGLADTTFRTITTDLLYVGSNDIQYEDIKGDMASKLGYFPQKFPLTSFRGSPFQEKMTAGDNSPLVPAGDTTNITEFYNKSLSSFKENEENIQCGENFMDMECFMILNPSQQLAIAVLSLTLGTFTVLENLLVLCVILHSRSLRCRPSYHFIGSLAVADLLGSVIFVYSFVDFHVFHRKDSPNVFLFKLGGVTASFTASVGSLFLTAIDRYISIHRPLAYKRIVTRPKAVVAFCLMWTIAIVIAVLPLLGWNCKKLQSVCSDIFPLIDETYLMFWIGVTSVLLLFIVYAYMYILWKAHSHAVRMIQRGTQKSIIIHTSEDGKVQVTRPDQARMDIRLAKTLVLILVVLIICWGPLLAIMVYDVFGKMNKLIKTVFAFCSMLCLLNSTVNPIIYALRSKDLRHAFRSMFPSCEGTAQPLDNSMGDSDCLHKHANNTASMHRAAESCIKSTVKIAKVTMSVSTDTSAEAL
# [12] = tested on: Mus musculus; assay: Antinociceptive activity in ICR mouse model of chronic constriction injury-induced neuropathic pain assessed as inhibition of mechanical allodynia at 3 umol/kg, ip administered 7 days post-surgery and measured after 0.5 hrs post-dose by Von Frey assay relative to control; format: functional
# [13] = tested on: Mus musculus; assay: Antinociceptive activity in ICR mouse model of chronic constriction injury-induced neuropathic pain assessed as inhibition of mechanical allodynia at 3 umol/kg, ip administered 7 days post-surgery and measured after 2 hrs post-dose by Von Frey assay relative to control; format: functional
# [14] = tested on: Mus musculus; assay: Antinociceptive activity in ICR mouse model of chronic constriction injury-induced neuropathic pain assessed as inhibition of mechanical allodynia at 10 umol/kg, ip administered 7 days post-surgery and measured after 2 hrs post-dose by Von Frey assay relative to control; format: functional
# [15] = tested on: Mus musculus; assay: Antinociceptive activity in ICR mouse model of chronic constriction injury-induced neuropathic pain assessed as inhibition of mechanical allodynia at 1 umol/kg, ip administered 7 days post-surgery and measured after 3 hrs post-dose by Von Frey assay relative to control; format: functional
# [16] = tested on: Mus musculus; assay: Antinociceptive activity in ICR mouse model of chronic constriction injury-induced neuropathic pain assessed as inhibition of mechanical allodynia at 10 umol/kg, ip administered 7 days post-surgery and measured after 3 hrs post-dose by Von Frey assay relative to control; format: functional
# [17] = tested on: Mus musculus; assay: Antinociceptive activity in ICR mouse model of chronic constriction injury-induced neuropathic pain assessed as inhibition of mechanical allodynia at 1 umol/kg, ip administered 7 days post-surgery and measured after 5 hrs post-dose by Von Frey assay relative to control; format: functional
# [18] = tested on: Mus musculus; assay: Antinociceptive activity in ICR mouse model of chronic constriction injury-induced neuropathic pain assessed as inhibition of mechanical allodynia at 10 umol/kg, ip administered 7 days post-surgery and measured after 0.5 hrs post-dose by Von Frey assay relative to control; format: functional
# [19] = tested on: Mus musculus; assay: Antinociceptive activity in ip dosed ICR mouse model of chronic constriction injury-induced neuropathic pain assessed as inhibition of mechanical allodynia administered 7 days post-surgery and measured after 1 hr post-dose by Von Frey assay; format: functional
# [20] = tested on: Mus musculus; assay: Protection ratio of antinociceptive activity in ICR mouse model of chronic constriction injury-induced neuropathic pain assessed as inhibition of mechanical allodynia at 10 umol/kg, ip administered 7 days post-surgery and measured after 3 hrs to 1 hrs post-dose by Von Frey assay; format: functional
pIC50 [7],pIC50 [11],SMILES,inhibition in vivo at 3 µmol/kg [1] [%],inhibition in vivo at 1 µmol/kg [2] [%],inhibition in vivo at 10 µmol/kg [3] [%],inhibition in vivo at 10 µmol/kg [4] [%],inhibition in vivo at 1 µmol/kg [5] [%],inhibition in vivo at 1 µmol/kg [6] [%],inhibition in vivo at 3 µmol/kg [8] [%],inhibition in vivo at 3 µmol/kg [9] [%],Activity [10],inhibition in vivo at 3 µmol/kg [12] [%],inhibition in vivo at 3 µmol/kg [13] [%],inhibition in vivo at 10 µmol/kg [14] [%],inhibition in vivo at 1 µmol/kg [15] [%],inhibition in vivo at 10 µmol/kg [16] [%],inhibition in vivo at 1 µmol/kg [17] [%],inhibition in vivo at 10 µmol/kg [18] [%],ED50 [19] [µmol/kg],Ratio [20]
< 4.30,< 4.30,O=C(O)c1cc(-c2ccc(C3CCNCC3)cc2)c2ccc(-c3ccc(C(F)(F)F)cc3)cc2c1 [PPTN],8.7,10,100,21.3,10,19.9,79.3,64.7,Non-Toxic,62.9,76.9,96.4,4.7,78.6,4.7,87.9,1.6,
,,O=C(O)c1cc(-c2ccc(C3CCNCC3)cc2)cc(-n2cc(-c3ccc(C(F)(F)F)cc3)nn2)c1,0,8.7,67.4,12.7,18.7,18.7,53.3,35.6,,44.6,44.6,57.2,8.7,31.9,8.7,52.4,3.5,
,,C#CCCCCN1CCC(c2ccc(-c3cc(C(=O)O)cc4cc(-c5ccc(C(F)(F)F)cc5)ccc34)cc2)CC1,,,75.9,0,,,,,,,,42.7,,9.6,,52.4,,0.13
,,O=C(O)c1cc(O)c2ccc(-c3ccc(C(F)(F)F)cc3)cc2c1,,,64.2,0,,,,,Non-Toxic,,,59.8,,35.2,,23.4,,0.34 - 0.63
,,CCC(=O)N1CCC(c2ccc(-c3cc(C(=O)O)cc4cc(-c5ccc(C(F)(F)F)cc5)ccc34)cc2)CC1,,,77.2,5.6,,,,,,,,71.6,,55.7,,32.9,,0.72 - 0.92
,,NCCCNC(=O)c1ccc(-c2cc(C(=O)O)cc(-n3cc(-c4ccc(C(F)(F)F)cc4)nn3)c2)s1,,,91.5,10,,,,,,,,74,,30.9,,81,,0.34 - 0.63
,,CC(=O)N1CCC(c2ccc(-c3cc(C(=O)O)cc4cc(-c5ccc(C(F)(F)F)cc5)ccc34)cc2)CC1,,,,,,,,,Non-Toxic,,,,,,,,,
,,O=C(O)c1cc(-c2ccc(C3CCNCC3)cc2)cc(-c2cn(-c3ccc(C(F)(F)F)cc3)nn2)c1,,,86.8,6.7,,,,,Non-Toxic,,,71.4,,55.1,,70.7,,0.34 - 0.63
